Where two headings read alike, the source gives them in different places.
Assays:
[1] = tested on: H929 multiple myeloma tumour line; experiment: In vitro cytotoxicity, Microculture Tetrazolium Assay; assay type: cell-based
Protocol: The cytotoxicity studies were carried out on the H929 multiple myeloma tumour line.
The cells are distributed onto microplates and exposed to the test compounds for 48 hours.

[2] = target: Mcl-1 protein (UniProtKB primary accession number: Q07820) (Homo sapiens, UniProt Q07820); experiment: Inhibition of Mcl-1 by fluorescence polarisation, Method 1; assay type: binding; settings: read-out: IC50 (M) Mcl-1 FP
Mcl-1 protein, sequence (Q07820 whole entry): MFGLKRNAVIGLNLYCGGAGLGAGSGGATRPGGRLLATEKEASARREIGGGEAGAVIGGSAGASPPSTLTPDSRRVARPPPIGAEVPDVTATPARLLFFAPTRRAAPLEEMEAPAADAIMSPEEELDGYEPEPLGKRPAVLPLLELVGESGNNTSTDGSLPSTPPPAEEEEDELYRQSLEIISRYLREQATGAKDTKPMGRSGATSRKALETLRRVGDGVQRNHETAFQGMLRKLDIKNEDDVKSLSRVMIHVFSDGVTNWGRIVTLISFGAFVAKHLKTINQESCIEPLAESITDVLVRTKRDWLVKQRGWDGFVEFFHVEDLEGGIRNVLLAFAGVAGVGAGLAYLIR
Procedure, shortened: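 Fluorescence polarisation competition with an 11-point compound dilution series (final DMSO 5%). Mcl-1 protein at 5 nM and fluorescein-labelled ligand at 1 nM (final) in 10 mM HEPES, 150 mM NaCl, 0.05% Tween 20, pH 7.4.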

[3] = Homo sapiens, NCI-H929, 48 h, H929 cells, 48 hours exposure, MTT, read-out: IC50 (μM) MTT H929
[4] = fluorescence polarisation test, Method 2 values are underlined in the patent (underlining not visible here)
[5] = H929 cells, 48 hours exposure, MTT, read-out: IC50 (μM) MTT H929
[6] = fluorescence polarisation, Method 1, or Method 2

Row | Structure (SMILES) | IC50 [2, 4] | IC50 [2, 6] | IC50 [1, 3] | further results
1 | COc1ccccc1-c1nccc(COc2ccccc2CC(Oc2ncnc3sc(-c4ccc(F)cc4)c(-c4ccc(OCCN5CCN(C)CC5)c(Cl)c4C)c23)C(=O)Oc2ccc3c(c2)CCC3)n1 [Example 809, 2,3-dihydro-1H-inden-5-yl (2R)-2-{[(5Sa)-5-{3-chloro-2-methyl-4-[2-(4-methylpiperazin-1-yl)ethoxy]phenyl}-6-(4-fluorophenyl)thieno[2,3-d]pyrimidin-4-yl]oxy}-3-(2-{[2-(2-methoxyphenyl)pyrimidin-4-yl]methoxy}phenyl)propanoate] |  |  |  | IC50 ([1]; Homo sapiens, NCI-H929, 48 h, H929 cells, 48 hours exposure, cell viability, read-out: IC50 (μM) MTT H929): 0.047 µM; IC50 ([2]; fluorescence polarisation test, Method 1, or Method 2 where the value is underlined (underlining not visible)): 6.91e-07 M
2 | Cc1c(-c2c(-c3ccc(Cl)o3)sc3ncnc(OC(Cc4ccccc4OCC4CCCO4)C(=O)O)c23)ccc(OCCN2CCN(C)CC2)c1Cl [Example 364, (2R)-2-{[6-(5-chlorofuran-2-yl)-(5Sa)-5-{3-chloro-2-methyl-4-[2-(4-methylpiperazin-1-yl)ethoxy]phenyl}thieno[2,3-d]pyrimidin-4-yl]oxy}-3-{2-[(2R)-tetrahydrofuran-2-ylmethoxy]phenyl}propanoic acid] | 5.1e-09 M |  | 0.052 µM | 
3 | COc1nc(C)cc(COc2ccccc2CC(Oc2ncnc3sc(-c4ccc(F)o4)c(-c4ccc(OCCN5CCN(C)CC5)c(Cl)c4C)c23)C(=O)O)n1 [Example 160, (2R)-2-{[(5Sa)-5-{3-chloro-2-methyl-4-[2-(4-methylpiperazin-1-yl)ethoxy]phenyl}-6-(5-fluorofuran-2-yl)thieno[2,3-d]pyrimidin-4-yl]oxy}-3-{2-[(2-methoxy-6-methylpyrimidin-4-yl)methoxy]phenyl}propanoic acid] | 5e-09 M |  | 0.021 µM | 
4 | COc1ccccc1C[C@@H](Oc1ncnc2sc(-c3ccco3)c(-c3ccc(OCCN4CCN(C)CC4)c(F)c3C)c12)C(=O)O (single isomer, unassigned) [Example 334] | 1.4e-08 M |  |  | IC50 ([1]; Homo sapiens, NCI-H929, 48 h, read-out: IC50 (μM) MTT H929, H929 cells, 48 hours exposure, MTT): 0.968 µM
5 | Cc1c(-c2c(-c3cncs3)sc3ncnc(OC(Cc4ccccc4)C(=O)O)c23)ccc(OCCN2CCN(C)CC2)c1Cl [Example 512, (2R)-2-{[(5Sa)-5-{3-chloro-2-methyl-4-[2-(4-methylpiperazin-1-yl)ethoxy]phenyl}-6-(1,3-thiazol-5-yl)thieno[2,3-d]pyrimidin-4-yl]oxy}-3-phenylpropanoic acid] |  | 1.3e-07 M | 7.42 µM | 
6 | COCCOCCOc1ccccc1CC(Oc1ncnc2sc(-c3ccc(F)o3)c(-c3ccc(OCCN4CCN(C)CC4)c(Cl)c3C)c12)C(=O)O [Example 196, (2R)-2-{[(5Sa)-5-{3-chloro-2-methyl-4-[2-(4-methylpiperazin-1-yl)ethoxy]phenyl}-6-(5-fluorofuran-2-yl)thieno[2,3-d]pyrimidin-4-yl]oxy}-3-{2-[2-(2-methoxyethoxy)ethoxy]phenyl}propanoic acid] | 5.6e-09 M |  | 0.076 µM | 
7 | Cc1ccc(-c2sc3ncnc(O[C@H](Cc4ccccc4)C(=O)O)c3c2-c2ccc(OCCN3CCN(C)CC3)c(Cl)c2C)s1 [Example 500, (2R)-2-{[(5Sa)-5-{3-chloro-2-methyl-4-[2-(4-methylpiperazin-1-yl)ethoxy]phenyl}-6-(5-methylthiophen-2-yl)thieno[2,3-d]pyrimidin-4-yl]oxy}-3-phenylpropanoic acid] |  | 8e-08 M |  | IC50 [1, 5]: 2.25 µM
8 | COc1cc(COc2ccccc2CC(Oc2ncnc3sc(-c4ccc(F)o4)c(-c4ccc(OCCN5CCN(C)CC5)c(Cl)c4C)c23)C(=O)O)ncn1 [Example 162, (2R)-2-{[(5Sa)-5-{3-chloro-2-methyl-4-[2-(4-methylpiperazin-1-yl)ethoxy]phenyl}-6-(5-fluorofuran-2-yl)thieno[2,3-d]pyrimidin-4-yl]oxy}-3-{2-[(6-methoxypyrimidin-4-yl)methoxy]phenyl}propanoic acid] | 9.9e-09 M |  | 0.027 µM | 
9 | CC#Cc1sc2ncnc(OC(Cc3ccccc3OC)C(=O)O)c2c1-c1ccc(OCCN(C)C)c(Cl)c1C [Example 467, (2R)-2-{[(5Sa)-5-{3-chloro-4-[2-(dimethylamino)ethoxy]-2-methylphenyl}-6-(prop-1-yn-1-yl)thieno[2,3-d]pyrimidin-4-yl]oxy}-3-(2-methoxyphenyl)propanoic acid] |  | 1.1e-08 M | 0.502 µM | 
10 | Cc1c(-c2c(-c3ccc(F)cc3)sc3ncnc(OC(Cc4ccccc4OCc4ccnc(N5CCOCC5)n4)C(=O)O)c23)ccc(OCCN(C)C)c1Cl [Example 129, (2R)-2-{[(5Sa)-5-{3-chloro-4-[2-(dimethylamino)ethoxy]-2-methylphenyl}-6-(4-fluorophenyl)thieno[2,3-d]pyrimidin-4-yl]oxy}-3-(2-{[2-(morpholin-4-yl)pyrimidin-4-yl]methoxy}phenyl)propanoic acid] | 2.2e-09 M |  | 0.069 µM | 
11 | COc1ccccc1CC(Oc1ncnc2sc(-c3cc(F)c(F)c(OC)c3)c(-c3ccc(OCCN4CCN(C)CC4)c(Cl)c3C)c12)C(=O)O [Example 524, (2R)-2-{[(5Sa)-5-{3-chloro-2-methyl-4-[2-(4-methylpiperazin-1-yl)ethoxy]phenyl}-6-(3,4-difluoro-5-methoxyphenyl)thieno[2,3-d]pyrimidin-4-yl]oxy}-3-(2-methoxyphenyl)propanoic acid] |  | 3.1e-08 M | 0.417 µM | 
12 | COc1ccccc1CC(Oc1ncnc2sc(-c3ccc(Cl)cc3)c(-c3ccc(OCCN4CCN(C)CC4)c(Cl)c3C)c12)C(=O)O [Example 539, (2R)-2-{[(5Sa)-5-{3-chloro-2-methyl-4-[2-(4-methylpiperazin-1-yl)ethoxy]phenyl}-6-(4-chlorophenyl)thieno[2,3-d]pyrimidin-4-yl]oxy}-3-(2-methoxyphenyl)propanoic acid] |  | 7.2e-08 M | 0.731 µM | 
13 | COCOc1cc(F)ccc1CC(Oc1ncnc2sc(-c3ccc(F)o3)c(-c3ccc(OCCN4CCN(C)CC4)c(Cl)c3C)c12)C(=O)O [Example 690, (2R)-2-{[(5Sa)-5-{3-chloro-2-methyl-4-[2-(4-methylpiperazin-1-yl)ethoxy]phenyl}-6-(5-fluorofuran-2-yl)thieno[2,3-d]pyrimidin-4-yl]oxy}-3-[4-fluoro-2-(methoxymethoxy)phenyl]propanoic acid] |  | 2.3e-08 M | 0.178 µM | 

Further lines, with some results ahead:

Row | IC50 [2, 4] | IC50 [2, 6] | Structure (SMILES) | IC50 [1, 3] | further results
14 | 1.2e-08 M |  | Cc1c(-c2c(-c3ccco3)sc3ncnc(OC(Cc4ccccc4OCc4cc5ccccc5cn4)C(=O)O)c23)ccc(OCCN2CCN(C)CC2)c1Cl [Example 230, (2R)-2-{[(5Sa)-5-{3-chloro-2-methyl-4-[2-(4-methylpiperazin-1-yl)ethoxy]phenyl}-6-(furan-2-yl)thieno[2,3-d]pyrimidin-4-yl]oxy}-3-[2-(isoquinolin-3-ylmethoxy)phenyl]propanoic acid] | 0.312 µM | 
15 | 3.7e-09 M |  | Cc1c(-c2c(-c3ccco3)sc3ncnc(O[C@H](Cc4ccccc4OCc4cc(-c5ccccc5)ncn4)C(=O)O)c23)ccc(OCCN2CCN(C)CC2)c1Cl [Example 224, (2R)-2-{[(5Sa)-5-{3-chloro-2-methyl-4-[2-(4-methylpiperazin-1-yl)ethoxy]phenyl}-6-(furan-2-yl)thieno[2,3-d]pyrimidin-4-yl]oxy}-3-{2-[(6-phenylpyrimidin-4-yl)methoxy]phenyl}propanoic acid] |  | IC50 [1, 5]: 0.049 µM
16 | 3.8e-09 M |  | Cc1c(-c2c(-c3ccc(F)cc3)sc3ncnc(OC(Cc4ccccc4OCc4ccnn4CCCC(F)(F)F)C(=O)O)c23)ccc(OCCN2CCN(C)CC2)c1Cl [Example 84, (2R)-2-{[(5Sa)-5-{3-chloro-2-methyl-4-[2-(4-methylpiperazin-1-yl)ethoxy]phenyl}-6-(4-fluorophenyl)thieno[2,3-d]pyrimidin-4-yl]oxy}-3-(2-{[1-(4,4,4-trifluorobutyl)-1H-pyrazol-5-yl]methoxy}phenyl)propanoic acid] | 0.018 µM | 
17 | 3.2e-09 M |  | COCCOCCn1nccc1COc1ccccc1CC(Oc1ncnc2sc(-c3ccc(F)cc3)c(-c3ccc(OCCN4CCN(C)CC4)c(Cl)c3C)c12)C(=O)O [Example 90, (2R)-2-{[(5Sa)-5-{3-chloro-2-methyl-4-[2-(4-methylpiperazin-1-yl)ethoxy]phenyl}-6-(4-fluorophenyl)thieno[2,3-d]pyrimidin-4-yl]oxy}-3-[2-({1-[2-(2-methoxyethoxy)ethyl]-1H-pyrazol-5-yl}methoxy)phenyl]propanoic acid] | 0.058 µM | 
18 | 3.3e-09 M |  | Cc1c(-c2c(-c3ccc(F)cc3)sc3ncnc(OC(Cc4ccccc4OCc4ccnc(-c5ccccc5)n4)C(=O)O)c23)ccc(OCCN2CCN(C)CC2)c1Cl [Example 29, (2R)-2-{[(5Sa)-5-{3-chloro-2-methyl-4-[2-(4-methylpiperazin-1-yl)ethoxy]phenyl}-6-(4-fluorophenyl)thieno[2,3-d]pyrimidin-4-yl]oxy}-3-{2-[(2-phenylpyrimidin-4-yl)methoxy]phenyl}propanoic acid] | 0.007 µM | 
19 | 4.2e-09 M |  | COCCn1nccc1COc1ccccc1CC(Oc1ncnc2sc(-c3ccc(F)cc3)c(-c3ccc(OCCN4CCN(C)CC4)c(Cl)c3C)c12)C(=O)O [Example 88, (2R)-2-{[(5Sa)-5-{3-chloro-2-methyl-4-[2-(4-methylpiperazin-1-yl)ethoxy]phenyl}-6-(4-fluorophenyl)thieno[2,3-d]pyrimidin-4-yl]oxy}-3-(2-{[1-(2-methoxyethyl)-1H-pyrazol-5-yl]methoxy}phenyl)propanoic acid] | 0.062 µM | 

— US9670227B2, “Thienopyrimidine derivatives, a process for their preparation and pharmaceutical compositions containing them” (LES LABORATOIRES SERVIER, priority 2013, dated 2017)
